Literature values, collected in US20250288584A1, “COMBINATIONS COMPRISING POSITIVE ALLOSTERIC MODULATORS OR ORTHOSTERIC AGONISTS OF METABOTROPIC GLUTAMATERGIC RECEPTOR SUBTYPE 2 AND THEIR USE” (JANSSEN PHARMACEUTICA NV, priority 2014, published 2025).

System: pentylenetetrazol seizures
Details: in vivo; cited from earlier work

CC[C@@H](C(N)=O)N1CCCC1=O [LEV, (S)-2-(2-oxopyrrolidin-1-yl) butanamide, reference compound]
activity in pentylenetetrazol seizure test: no activity
